Test results taken from ChEMBL document CHEMBL1148088, “Vibrindole A, a metabolite of the marine bacterium, Vibrio parahaemolyticus, isolated from the toxic mucus of the boxfish Ostracion cubicus” (1994).

Legend:
Staphylococcus aureus = test: Antimicrobial activity against Staphylococcus aureus Sau1091-5 at 100 ug/disk; type: functional; details: read-out: IZ
Bacillus subtilis = test: Antimicrobial activity against Bacillus subtilis Bs1091-1 at 100 ug/disk; type: functional; details: read-out: IZ
Staphylococcus [1] = test: Antimicrobial activity against Staphylococcus albus Sal1091-4 at 100 ug/disk; type: functional; details: read-out: IZ
Staphylococcus [2] = test: Antimicrobial activity against Staphylococcus albus Sal1091-4 at […]; type: functional, organism-based

Row | Compound | zone of inhibition at 100 µg/disc (Staphylococcus aureus) [mm] | zone of inhibition at 100 µg/disc (Bacillus subtilis) [mm] | zone of inhibition at 100 µg/disc (Staphylococcus [1]) [mm] | inhibition zone (IZ) (Staphylococcus [2]) [mm]
1 | O=C1c2ccccc2NC1(c1c[nH]c2ccccc12)c1c[nH]c2ccccc12 | 11 | – | – | –
2 | CC(c1c[nH]c2ccccc12)c1c[nH]c2ccccc12 [VIBRINDOLE A] | 11 | 7 | 11 | –
3 | GENTAMICIN | – | – | – | 14
